Data on one molecule can be found in patent publication US10231954B2, “Neurodegenerative therapies” (LYTIX BIOPHARMA AS, priority 2014, dated 2019).

What all share (settings): 100 micromolar inhibitor concentration; 100 is no change
The target in one test is MKK2 (Homo sapiens, UniProt P36507). As to the kind of experiment: Kinase profiling MKK2. It is filed as biochemical. The source says: (§1) Any value less that 25 is considered to be highly significant inhibition.
Another test deals with T1, MKK6 (Homo sapiens, UniProt P52564).
T1 sequence (P52564 1-334): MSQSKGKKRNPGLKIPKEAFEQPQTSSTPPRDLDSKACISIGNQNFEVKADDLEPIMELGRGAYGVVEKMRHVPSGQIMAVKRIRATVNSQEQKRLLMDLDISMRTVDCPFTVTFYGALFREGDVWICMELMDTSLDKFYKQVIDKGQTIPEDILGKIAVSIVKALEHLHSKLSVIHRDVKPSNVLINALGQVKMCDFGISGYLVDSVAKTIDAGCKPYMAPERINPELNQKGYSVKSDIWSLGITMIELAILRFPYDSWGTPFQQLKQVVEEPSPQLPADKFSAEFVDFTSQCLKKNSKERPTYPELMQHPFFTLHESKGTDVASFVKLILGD
In words: Kinase profiling MKK6. It is filed as biochemical.
From the text: as §1

A further test concerns the target JNK1 (Homo sapiens, UniProt P45983). In words: Kinase profiling JNK1. The format is biochemical.
From the text: as §1

The target in a further test is p38b MAPK (Homo sapiens, UniProt Q15759). In words: Kinase profiling p38b MAPK. It is filed as biochemical.
From the text: as §1

For the next test, the target named is RSK1 (Homo sapiens, UniProt Q15418). As to the kind of experiment: Kinase profiling RSK1. The format is biochemical.
From the text: as §1

Another test addresses T2, PDK1 (Homo sapiens, UniProt O15530).
T2 sequence (O15530 1-556): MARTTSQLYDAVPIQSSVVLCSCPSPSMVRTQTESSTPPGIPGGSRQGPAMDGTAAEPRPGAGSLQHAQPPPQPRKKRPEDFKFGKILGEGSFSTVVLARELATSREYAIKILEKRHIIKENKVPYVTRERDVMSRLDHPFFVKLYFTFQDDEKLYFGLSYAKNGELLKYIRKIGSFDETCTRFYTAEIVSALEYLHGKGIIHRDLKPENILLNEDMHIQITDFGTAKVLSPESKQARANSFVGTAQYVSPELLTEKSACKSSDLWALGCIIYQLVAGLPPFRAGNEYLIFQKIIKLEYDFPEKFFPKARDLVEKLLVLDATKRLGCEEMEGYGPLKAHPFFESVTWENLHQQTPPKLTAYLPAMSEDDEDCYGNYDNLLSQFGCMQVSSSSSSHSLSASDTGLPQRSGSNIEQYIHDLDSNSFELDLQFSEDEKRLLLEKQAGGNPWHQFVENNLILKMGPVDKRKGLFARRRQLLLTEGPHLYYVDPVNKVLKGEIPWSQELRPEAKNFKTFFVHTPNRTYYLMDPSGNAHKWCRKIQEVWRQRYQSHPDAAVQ
In words: Kinase profiling PDK1. It is filed as biochemical.
From the text: as §1

For a further test, the target named is PKBa (Homo sapiens, UniProt P31749). In words: Kinase profiling PKBa. The format is biochemical.
From the text: as §1

Another test has as its target S6K1 (Homo sapiens, UniProt P23443). As to the kind of experiment: Kinase profiling S6K1. The format is biochemical.
From the text: as §1

A further test has as its target PKA (Homo sapiens, UniProt P17612). As to the kind of experiment: Kinase profiling PKA. It is filed as biochemical.
From the text: as §1

The next test concerns the target ROCK 2 (Homo sapiens, UniProt O75116). In words: Kinase profiling ROCK 2. It is filed as biochemical.
From the text: as §1

The target of the next test is PRK2 (Homo sapiens, UniProt Q16513). As to the kind of experiment: Kinase profiling PRK2. It is filed as biochemical.
From the text: as §1

Another test addresses PKCa (Homo sapiens, UniProt P17252). As to the kind of experiment: Kinase profiling PKCa. The format is biochemical.
From the text: as §1

A further test concerns the target CAMKKb (Homo sapiens, UniProt Q96RR4). In words: Kinase profiling CAMKKb. It is filed as biochemical.
From the text: as §1

For the next test, the target named is PLK1 (Homo sapiens, UniProt P53350). As to the kind of experiment: Kinase profiling PLK1. It is filed as biochemical.
From the text: as §1

For the next test, the system named is AMPK (hum). As to the kind of experiment: Kinase profiling AMPK (hum). It is filed as biochemical, human.
From the text: as §1

A further test addresses MELK (Homo sapiens, UniProt Q14680). In words: Kinase profiling MELK. The format is biochemical.
From the text: as §1

For the next test, the target named is PIM1 (Homo sapiens, UniProt P11309). As to the kind of experiment: Kinase profiling PIM1. The format is biochemical.
From the text: as §1

Another test has as its target RIPK2 (Homo sapiens, UniProt O43353). In words: Kinase profiling RIPK2. The format is biochemical.
From the text: as §1

The target in a further test is BTK (Homo sapiens, UniProt Q06187). In words: Kinase profiling BTK. The format is biochemical.
From the text: as §1

The next test deals with EPH-A2 (Homo sapiens, UniProt P29317). As to the kind of experiment: Kinase profiling EPH-A2. The format is biochemical.
From the text: as §1

A further test has as its target HER4 (Homo sapiens, UniProt Q15303). In words: Kinase profiling HER4. The format is biochemical.
From the text: as §1

For another test, the target named is IGF-1R (Homo sapiens, UniProt P08069). As to the kind of experiment: Kinase profiling IGF-1R. The format is biochemical.
From the text: as §1

Structures are written as SMILES.

IGF-1R, sequence (P08069 31-1367, species assumed): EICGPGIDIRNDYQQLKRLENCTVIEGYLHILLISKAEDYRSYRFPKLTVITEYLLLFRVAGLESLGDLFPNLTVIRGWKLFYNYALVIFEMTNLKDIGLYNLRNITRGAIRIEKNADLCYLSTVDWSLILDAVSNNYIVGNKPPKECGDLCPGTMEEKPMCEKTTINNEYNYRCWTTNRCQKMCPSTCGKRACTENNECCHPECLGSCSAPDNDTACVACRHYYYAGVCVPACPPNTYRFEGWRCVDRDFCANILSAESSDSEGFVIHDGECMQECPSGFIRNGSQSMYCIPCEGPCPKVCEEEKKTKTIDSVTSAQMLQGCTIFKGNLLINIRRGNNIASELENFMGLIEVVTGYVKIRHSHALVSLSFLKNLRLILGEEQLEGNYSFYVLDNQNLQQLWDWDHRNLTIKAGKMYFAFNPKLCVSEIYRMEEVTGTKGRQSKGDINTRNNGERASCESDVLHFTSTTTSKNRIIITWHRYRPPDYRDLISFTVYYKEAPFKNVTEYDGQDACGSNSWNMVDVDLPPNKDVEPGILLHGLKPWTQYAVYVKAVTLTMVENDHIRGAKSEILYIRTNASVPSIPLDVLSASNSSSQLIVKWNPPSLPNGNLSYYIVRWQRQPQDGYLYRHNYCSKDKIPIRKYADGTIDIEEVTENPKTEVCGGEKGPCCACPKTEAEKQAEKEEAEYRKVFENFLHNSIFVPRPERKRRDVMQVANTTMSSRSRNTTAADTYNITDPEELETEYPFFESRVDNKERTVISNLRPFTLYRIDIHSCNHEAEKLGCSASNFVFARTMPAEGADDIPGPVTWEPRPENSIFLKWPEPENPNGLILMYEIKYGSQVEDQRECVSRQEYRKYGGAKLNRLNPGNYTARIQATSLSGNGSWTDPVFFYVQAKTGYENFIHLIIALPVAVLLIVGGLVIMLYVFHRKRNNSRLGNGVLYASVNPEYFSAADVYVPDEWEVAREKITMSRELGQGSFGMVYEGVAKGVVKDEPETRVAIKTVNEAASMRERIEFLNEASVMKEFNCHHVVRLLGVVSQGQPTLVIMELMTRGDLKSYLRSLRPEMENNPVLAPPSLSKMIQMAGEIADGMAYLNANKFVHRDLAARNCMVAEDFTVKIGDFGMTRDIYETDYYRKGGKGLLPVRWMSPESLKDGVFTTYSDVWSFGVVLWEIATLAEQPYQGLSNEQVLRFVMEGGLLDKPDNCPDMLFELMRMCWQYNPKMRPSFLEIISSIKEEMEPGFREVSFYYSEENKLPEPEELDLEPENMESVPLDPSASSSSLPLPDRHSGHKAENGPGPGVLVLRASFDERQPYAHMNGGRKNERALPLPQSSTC
PRK2, sequence (Q16513 whole entry, species assumed): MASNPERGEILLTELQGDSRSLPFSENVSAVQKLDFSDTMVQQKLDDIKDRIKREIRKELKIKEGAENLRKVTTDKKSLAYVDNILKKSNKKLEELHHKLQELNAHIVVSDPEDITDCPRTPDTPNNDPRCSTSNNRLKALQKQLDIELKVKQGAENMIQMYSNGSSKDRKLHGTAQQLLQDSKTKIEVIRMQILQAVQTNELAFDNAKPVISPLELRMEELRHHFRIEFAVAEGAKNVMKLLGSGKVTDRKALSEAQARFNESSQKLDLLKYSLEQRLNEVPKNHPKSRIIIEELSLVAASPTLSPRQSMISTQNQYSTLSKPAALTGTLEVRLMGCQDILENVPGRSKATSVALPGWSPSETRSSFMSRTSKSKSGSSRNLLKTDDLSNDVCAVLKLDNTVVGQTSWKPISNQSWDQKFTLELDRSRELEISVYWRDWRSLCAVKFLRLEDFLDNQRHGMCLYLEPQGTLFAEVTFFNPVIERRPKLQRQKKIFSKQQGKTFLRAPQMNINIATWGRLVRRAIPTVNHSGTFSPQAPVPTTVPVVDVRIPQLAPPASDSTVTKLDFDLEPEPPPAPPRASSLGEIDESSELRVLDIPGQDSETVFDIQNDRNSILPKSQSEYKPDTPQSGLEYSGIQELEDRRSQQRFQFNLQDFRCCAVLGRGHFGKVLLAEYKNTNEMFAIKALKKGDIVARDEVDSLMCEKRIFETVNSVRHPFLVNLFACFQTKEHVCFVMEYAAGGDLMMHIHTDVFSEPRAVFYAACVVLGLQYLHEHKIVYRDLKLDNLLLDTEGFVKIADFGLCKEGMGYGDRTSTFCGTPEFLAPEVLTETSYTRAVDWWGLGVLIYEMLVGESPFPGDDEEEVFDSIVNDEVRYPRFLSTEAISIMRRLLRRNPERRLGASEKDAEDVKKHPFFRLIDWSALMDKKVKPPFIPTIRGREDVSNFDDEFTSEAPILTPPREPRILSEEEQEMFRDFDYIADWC
MELK, sequence (Q14680 whole entry, species assumed): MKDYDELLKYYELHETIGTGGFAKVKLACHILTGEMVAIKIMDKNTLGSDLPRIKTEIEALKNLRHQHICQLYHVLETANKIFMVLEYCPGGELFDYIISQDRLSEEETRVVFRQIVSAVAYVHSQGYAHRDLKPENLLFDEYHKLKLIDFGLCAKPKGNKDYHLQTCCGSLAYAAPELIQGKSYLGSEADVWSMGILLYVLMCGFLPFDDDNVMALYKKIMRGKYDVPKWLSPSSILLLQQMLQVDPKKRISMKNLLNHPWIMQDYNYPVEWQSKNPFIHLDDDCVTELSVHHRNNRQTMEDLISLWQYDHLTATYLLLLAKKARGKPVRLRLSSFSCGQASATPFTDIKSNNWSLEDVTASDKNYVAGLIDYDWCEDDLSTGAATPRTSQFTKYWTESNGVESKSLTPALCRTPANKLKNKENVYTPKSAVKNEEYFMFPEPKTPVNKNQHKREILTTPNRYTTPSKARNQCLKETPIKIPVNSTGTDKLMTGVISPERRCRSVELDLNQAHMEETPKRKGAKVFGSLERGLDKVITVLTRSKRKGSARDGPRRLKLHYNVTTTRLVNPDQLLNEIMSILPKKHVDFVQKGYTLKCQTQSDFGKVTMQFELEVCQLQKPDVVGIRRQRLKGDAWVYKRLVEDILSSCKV
RIPK2, sequence (O43353 whole entry, species assumed): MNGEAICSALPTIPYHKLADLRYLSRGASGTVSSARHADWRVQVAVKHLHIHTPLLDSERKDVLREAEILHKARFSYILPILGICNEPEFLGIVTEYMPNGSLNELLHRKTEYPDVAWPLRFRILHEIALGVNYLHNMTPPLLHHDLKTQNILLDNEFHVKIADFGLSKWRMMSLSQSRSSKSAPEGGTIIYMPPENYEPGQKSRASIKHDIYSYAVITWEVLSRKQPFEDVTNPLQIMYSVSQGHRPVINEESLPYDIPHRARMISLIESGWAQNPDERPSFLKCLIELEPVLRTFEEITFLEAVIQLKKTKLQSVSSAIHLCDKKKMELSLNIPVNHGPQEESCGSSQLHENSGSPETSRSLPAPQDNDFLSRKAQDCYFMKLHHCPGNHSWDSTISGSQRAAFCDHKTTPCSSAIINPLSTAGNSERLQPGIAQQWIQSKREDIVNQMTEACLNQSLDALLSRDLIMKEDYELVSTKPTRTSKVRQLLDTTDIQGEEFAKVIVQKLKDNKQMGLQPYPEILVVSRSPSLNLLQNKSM
p38b MAPK, sequence (Q15759 whole entry): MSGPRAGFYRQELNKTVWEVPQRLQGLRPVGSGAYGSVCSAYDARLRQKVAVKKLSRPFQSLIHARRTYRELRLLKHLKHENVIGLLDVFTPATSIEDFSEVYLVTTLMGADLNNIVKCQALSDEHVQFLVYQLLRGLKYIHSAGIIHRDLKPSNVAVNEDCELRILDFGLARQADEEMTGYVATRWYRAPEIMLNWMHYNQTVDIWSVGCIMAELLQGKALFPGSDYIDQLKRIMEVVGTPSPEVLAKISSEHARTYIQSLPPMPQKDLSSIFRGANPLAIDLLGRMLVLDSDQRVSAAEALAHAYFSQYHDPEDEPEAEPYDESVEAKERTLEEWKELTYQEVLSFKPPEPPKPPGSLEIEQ
PIM1, sequence (P11309 whole entry, species assumed): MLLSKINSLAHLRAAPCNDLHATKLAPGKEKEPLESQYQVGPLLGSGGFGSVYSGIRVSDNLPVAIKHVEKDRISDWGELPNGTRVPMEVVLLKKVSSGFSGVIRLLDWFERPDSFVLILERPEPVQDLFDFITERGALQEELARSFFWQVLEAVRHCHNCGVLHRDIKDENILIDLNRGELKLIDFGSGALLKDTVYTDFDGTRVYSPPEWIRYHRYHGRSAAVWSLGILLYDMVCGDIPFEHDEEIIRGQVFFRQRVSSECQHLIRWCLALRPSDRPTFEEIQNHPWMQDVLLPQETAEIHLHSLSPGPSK

Consider `O=C(Nc1nc2ccc(O)cc2s1)c1cccnc1` [Compound 08-44], for which, at MKK2, the “residual kinase activity, MKK2” value is 48. Moreover, the “residual kinase activity, MKK6” value on MKK6 worked out at 107. Besides, the “residual kinase activity, JNK1” value on JNK1 turned out to be 102. For the same molecule, on p38b MAPK, the “residual kinase activity, p38b MAPK” value is listed as 89. Also, the “residual kinase activity, RSK1” value at RSK1 is given as 41. The “residual kinase activity, PDK1” value at PDK1 came out at 77. The “residual kinase activity, PKBa” value at PKBa was 83. Moreover, the “residual kinase activity, S6K1” value on S6K1 was determined as 17. Also, the “residual kinase activity, PKA” value on PKA came to 92. Moreover, at ROCK 2, the “residual kinase activity, ROCK 2” value was 42. At PRK2, the “residual kinase activity, PRK2” value was 46. On PKCa, the “residual kinase activity, PKCa” value is 67. Besides, on CAMKKb, the “residual kinase activity, CAMKKb” value turned out to be 59. The “residual kinase activity, PLK1” value at PLK1 worked out at 63. For the same molecule, the “residual kinase activity, AMPK (hum)” value with AMPK (hum) was 55. Moreover, the “residual kinase activity, MELK” value on MELK is reported as 29. The “residual kinase activity, PIM1” value at PIM1 is listed as 42. The “residual kinase activity, RIPK2” value on RIPK2 came to 21. In addition, the “residual kinase activity, BTK” value at BTK stood at 54. Moreover, the “residual kinase activity, EPH-A2” value at EPH-A2 is reported as 81. For the same molecule, the “residual kinase activity, HER4” value at HER4 stood at 17. The “residual kinase activity, IGF-1R” value at IGF-1R is 54.
